Columns and labels:
[1] = system: germline ε promoter (A5T4 reporter line); experiment: Retinoids contacted with IL-4 stimulated A5T4 reporter cells, inhibition of germline ε transcription; type: cell-based, human; conditions: 0.03 μM, 0.3 μM, 3 μM and 30 μM, FIG. 12
Method: IL-4 stimulated A5T4 reporter cells were contacted with varying concentrations of retinoids a-tRA, 13-cRA and 9-cRA (0.03 μM, 0.3 μM, 3 μM and 30 μM) as assessed for inhibition of germline ε transcription. DMSO and a compound known to inhibit germline ε transcription were tested as controls.

germline ε transcription = conditions: in vitro assays, literature; cited from earlier work
IgE production = conditions: in vitro assays, literature; cited from earlier work
human RXR-β (hRXR-β) = molecular target: T1, human RXR-β (hRXR-β) (Homo sapiens, UniProt P28702); experiment: β-galactosidase yeast two-hybrid (YTH) interaction assay; type: binding
T1 construct: expressed in transfected cells; prey cDNA from a library of the A5T4 reporter cell line (BJAB B-cells)
T1 sequence (P28702 1-533): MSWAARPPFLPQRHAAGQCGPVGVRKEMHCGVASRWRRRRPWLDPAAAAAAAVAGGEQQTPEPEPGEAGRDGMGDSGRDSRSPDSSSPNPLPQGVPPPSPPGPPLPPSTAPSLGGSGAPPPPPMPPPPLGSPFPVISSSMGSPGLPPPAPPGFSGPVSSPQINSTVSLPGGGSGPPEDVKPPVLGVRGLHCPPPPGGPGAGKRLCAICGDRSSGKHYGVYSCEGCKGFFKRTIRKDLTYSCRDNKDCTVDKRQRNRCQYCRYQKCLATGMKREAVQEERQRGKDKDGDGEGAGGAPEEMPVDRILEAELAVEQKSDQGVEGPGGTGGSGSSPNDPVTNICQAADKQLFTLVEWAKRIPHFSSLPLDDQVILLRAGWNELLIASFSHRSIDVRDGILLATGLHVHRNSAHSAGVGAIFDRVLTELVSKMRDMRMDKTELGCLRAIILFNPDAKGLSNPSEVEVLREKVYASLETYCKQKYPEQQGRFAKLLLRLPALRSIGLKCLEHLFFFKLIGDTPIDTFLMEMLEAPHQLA
Method: Potential binding partners for peptide CL06wt were identified in a β-galactosidase yeast two-hybrid (YTH) assay using peptide CL06wt as bait and a cDNA library constructed from the A5T4 reporter cell line as prey. Binding was assessed by β-galactosidase quantification using BetaFluor (Novagen) as a substrate. A negative interaction control (no cDNA fused downstream of the GAL4 activation domain sequence) was also run. A general outline of the YTH assay is illustrated in FIG. 5A. Following clustering, filtering to remove non-specific bait hits (e.g., GFP and BFP), singletons and clusters recognized by 10 or more cDNA baits (based upon historical YTH assays), and prioritization, four prey clones were identified as hits, designated CL06-nonstim-7, CL06-stim-14, CL06-stim-15 and CL06-stim-2.
The interaction of CL06wt peptide and its mutants with the clones identified as potential targets for the peptide CL06wt was then quantified in a β-galactosidase YTH assay. The YTH assay was performed in the manner described above. A general outline of this YTH assay is illustrated in FIG. 5B. […]
The interaction of these IOF and LOF mutants with different polypeptides encoded by the clones CL06-nonstim-7, CL06-stim-14, CL06-stim-15 and CL06-stim-2 were quantified using the YTH assay described above. […]

[2] = system: IL-4 inducible germline ε promoter (A5T4 reporter cell line); experiment: A5T4 reporter line screening assay: IL-4 induced germline ε promoter driving HBEGF2a/GFP reporter, peptide expressed retrovirally as BFP fusion, FACS; type: cell-based, human; conditions: mutants categorised relative to CL06wt
Excerpt: Peptide CL06wt was identified by screening a retroviral library of random peptide 20-mers for the ability to inhibit IL-4 induced germline ε transcription using the HBEGF2a/diphtheria dual reporter phenotypic screening system described in WO 01/31232. To construct the random library, A5T4 reporter cells (described in more detail below) were infected with an infectious retroviral library of random peptide 20-mers (prepared as described in WO 97/27213; see also WO 01/34806 at page 39, line 36 through page 40, line 19). The retroviral vector used includes a gene encoding blue fluorescent protein (BFP) fused upstream of the region encoding the random peptide via a linker region encoding an α-helical peptide linker (expression fusion product is referred to as “BFP-peptide”). Expression of the BFP-peptide product is controlled by a promoter sensitive to the tetracyline-regulated transactivator such that expression of the BFP-peptide regulated by tetracycline (Tet) or doxycycline (Dox). […]
Following infection, the library was enriched for cells expressing peptides that inhibit IL-4 induced ε transcription as generally outlined in the top half of FIG. 3 and sorted by FACS into single cell clones. […] After 5 days, both populations were stimulated with IL-4 (final conc. 60 U/mL; PeptroTech, Inc.) and, after 3 more days, both populations were analyzed by FACS to measure BFP and GFP fluorescence. […]

[3] = system: ST486 endogenous α promoter; experiment: TAQMAN assay of endogenous germline α promoter transcription in TGF-β stimulated ST486 cells; type: cell-based; conditions: TGF-β 40 ng/ml, average of 3 values, p=0.6867
Method: The ability of peptide CL06wt to inhibit transcription of an endogenous germline ε promoter was confirmed using a TAQMAN® assay (Roche Molecular, Alameda, Calif.). Briefly, A5T4 cells were infected with retrovirus capable of expressing peptide CL06wt (prepared as described above). The cells were sorted for BFP^+ to select for infected cells. Infected cells were divided into two populations. One population was exposed to Dox (10 ng/ml). Both populations were stimulated with IL-4 (60 U/ml). After 3 days, the cells were pelleted and the pellets assayed for ε promoter transcription using a TAQMAN assay performed as described in Applied Biosystems Protocol 4310299 (available at http:www.appliedbiosystems.com). The primers and probe, which are specific for the transcription product driven by the A5T4 endogenous ε promoter, were as follows (the probe was labeled at the 5′-end with Fam and at the 3′-end with Tamra):
The assay was similar to that described in the immediately preceding section, except that ST486 cells (ATCC # CRL-1647) engineered to express the tetracycline-regulated transactivator were infected and the infected cells were stimulated with TGF-β (40 ng/ml; Peprotech). The primers and probe, which are specific for the transcription product driven by the ST486 endogenous α promoter, were as follows (the probe was labeled at the 5′-end with Fam and at the 3′-end with Tamra): […]

[4] = molecular target: T2, human retinoid X receptor beta (polypeptide encoded by prey clone CL06-stim-2) (human, UniProt P28702 1-533, limits assumed); experiment: beta-galactosidase yeast two-hybrid; CL06SY1 is a loss of function (L) mutant, hence category L (loss of interaction) with CL06-stim-2
T2 construct: Yeast two-hybrid prey; also called hRXR-β; RXR-β
T2 sequence (looked up): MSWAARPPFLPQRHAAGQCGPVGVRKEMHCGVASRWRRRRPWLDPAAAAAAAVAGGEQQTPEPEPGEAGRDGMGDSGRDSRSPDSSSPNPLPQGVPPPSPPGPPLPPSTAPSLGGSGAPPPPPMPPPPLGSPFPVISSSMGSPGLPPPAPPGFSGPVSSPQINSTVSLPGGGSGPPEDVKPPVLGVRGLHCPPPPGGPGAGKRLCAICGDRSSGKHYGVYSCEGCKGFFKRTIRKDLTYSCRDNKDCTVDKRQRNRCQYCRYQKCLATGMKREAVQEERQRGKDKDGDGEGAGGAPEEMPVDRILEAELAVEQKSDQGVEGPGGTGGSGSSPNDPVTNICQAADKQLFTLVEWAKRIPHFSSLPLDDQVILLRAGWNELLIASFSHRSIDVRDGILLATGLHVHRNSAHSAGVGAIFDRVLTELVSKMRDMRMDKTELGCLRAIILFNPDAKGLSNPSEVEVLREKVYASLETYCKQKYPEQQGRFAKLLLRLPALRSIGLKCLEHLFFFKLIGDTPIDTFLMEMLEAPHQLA

[5] = molecular target: T2, human retinoid X receptor beta …; experiment: cell-based or functional assay
[6] = molecular target: T2, human retinoid X receptor beta …; experiment: cell-based or functional assay; remark: listed apart in the source
[7] = molecular target: T2, human retinoid X receptor beta …; experiment: beta-galactosidase yeast two-hybrid; CL06LC is a loss of function (L) mutant, hence category L (loss of interaction) with CL06-stim-2

CC1=C(/C=C/C(C)=C\C=C\C(C)=C\C(=O)O)C(C)(C)CCC1 [Peptide 9-cRA, 9-cis RA]
inhibition of germline ε transcription [1]: inhibited germline ε transcription in a dose-dependent manner

CC1=C(/C=C/C(C)=C/C=C/C(C)=C\C(=O)O)C(C)(C)CCC1 [Peptide 13-cRA, 13-cis-RA]
inhibition of germline ε transcription [1]: inhibited germline ε transcription in a dose-dependent manner | inhibition of germline ε transcription (germline ε transcription): inhibit both IgE production and germline ε transcription in a dose-dependent manner | inhibition of IgE production (IgE production): inhibit both IgE production and germline ε transcription in a dose-dependent manner

CC1=C(/C=C/C(C)=C/C=C/C(C)=C/C(=O)O)C(C)(C)CCC1 [a-tRA, all-trans RA]
inhibition of germline ε transcription [1]: inhibited germline ε transcription in a dose-dependent manner | inhibition of germline ε transcription (germline ε transcription): inhibit both IgE production and germline ε transcription in a dose-dependent manner | inhibition of IgE production (IgE production): inhibit both IgE production and germline ε transcription in a dose-dependent manner

AALCSYAHSYAA [CL06MS, dual alanine mutant of CL06wt]
binding to hRXR-β in yeast two hybrid interaction assay (human RXR-β (hRXR-β)): found to bind | functional category based on reporter ratio [2]: IOF (An increase of function mutant (IOF) shows a >50% increase in reporter function)

MSLCSYAHSYAA [CL06wt, 12-residue peptide identified from a retroviral random peptide library, expressed as BFP-peptide fusion]
binding to hRXR-β in yeast two hybrid interaction assay (human RXR-β (hRXR-β)): found to bind | endogenous a inhibition ratio [3]: 0.93

B1: peptide CL06SY1 (MSLCAAAHSYAA) (peptide)
peptide: MSLCAAAHSYAA
notes: Dual alanine mutant of CL06wt (first S, Y to A, A); Yeast two-hybrid bait fusion and BFP fusion as for CL06wt
binding result [4]: no binding | Reporter Ratio (A5T4 reporter line, IL-4 induced germline ε transcription) [5]: 1.09

AALCSYAHSYAA [peptide CL06MS (AALCSYAHSYAA)]
Reporter Ratio (A5T4 reporter line, IL-4 induced germline ε transcription) [5]: 1.56

MSLCSYAHSYAA [peptide CL06wt (MSLCSYAHSYAA)]
Reporter Ratio (A5T4 reporter line, IL-4 induced germline ε transcription) [5]: 1.3 | endogenous ε inhibition ratio (TAQMAN assay, +IL-4/-Dox to +IL-4/+Dox) [6]: 1.37

B2: peptide CL06LC (MSAASYAHSYAA) (peptide)
peptide: MSAASYAHSYAA
notes: Dual alanine mutant of CL06wt (L, C to A, A); Yeast two-hybrid bait fusion and BFP fusion as for CL06wt
binding result [7]: no binding | Reporter Ratio (A5T4 reporter line, IL-4 induced germline ε transcription) [5]: 1.06

Source: patent US7425418B2, “Compounds that modulate processes associated with IgE production” (Rigel Pharmaceuticals, Inc., priority 2002, dated 2008)
